# Active and inactive are the calls of the source.
# What was measured:
# [1] = biological target: T1, Sentrin-specific protease 7 (Homo sapiens, UniProt Q9BQF6); format: functional;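 further: Luminescence-based dose-response confirmation of ultra-high-throughput screening hits, measuring inhibition of SENP7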
# T1 sequence (Q9BQF6 whole entry): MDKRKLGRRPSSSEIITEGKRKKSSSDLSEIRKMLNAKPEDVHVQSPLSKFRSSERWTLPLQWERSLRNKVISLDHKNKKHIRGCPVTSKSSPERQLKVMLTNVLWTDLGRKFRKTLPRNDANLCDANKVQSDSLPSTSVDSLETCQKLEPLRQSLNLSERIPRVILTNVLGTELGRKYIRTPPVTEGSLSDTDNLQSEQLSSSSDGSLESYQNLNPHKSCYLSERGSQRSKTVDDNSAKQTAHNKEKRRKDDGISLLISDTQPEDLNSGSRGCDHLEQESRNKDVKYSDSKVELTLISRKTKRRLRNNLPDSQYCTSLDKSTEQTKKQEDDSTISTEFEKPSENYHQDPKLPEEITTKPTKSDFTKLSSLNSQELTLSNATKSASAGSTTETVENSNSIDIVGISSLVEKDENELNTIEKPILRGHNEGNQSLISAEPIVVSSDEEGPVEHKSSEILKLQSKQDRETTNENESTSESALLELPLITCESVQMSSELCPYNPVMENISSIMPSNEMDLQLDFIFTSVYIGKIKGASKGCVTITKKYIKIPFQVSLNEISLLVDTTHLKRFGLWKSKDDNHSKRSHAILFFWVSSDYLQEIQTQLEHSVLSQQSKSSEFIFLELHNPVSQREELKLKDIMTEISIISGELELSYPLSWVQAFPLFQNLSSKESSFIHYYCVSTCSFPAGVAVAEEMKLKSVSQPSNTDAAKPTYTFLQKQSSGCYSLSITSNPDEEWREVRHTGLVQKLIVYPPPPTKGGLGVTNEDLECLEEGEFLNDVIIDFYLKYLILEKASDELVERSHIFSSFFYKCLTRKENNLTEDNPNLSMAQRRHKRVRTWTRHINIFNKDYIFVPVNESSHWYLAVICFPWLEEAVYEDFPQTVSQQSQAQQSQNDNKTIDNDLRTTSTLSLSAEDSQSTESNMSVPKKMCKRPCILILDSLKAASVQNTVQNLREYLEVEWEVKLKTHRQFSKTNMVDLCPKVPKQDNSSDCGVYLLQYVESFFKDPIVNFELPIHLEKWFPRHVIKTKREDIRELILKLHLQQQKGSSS
# Caspase-3 = biological target: T2, Caspase-3 (Homo sapiens, UniProt P42574); format: functional;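 further: Dose-response selectivity test against caspase-3 for candidate inhibitors of sentrin-specific proteases (SENPs)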
# T2 sequence (P42574 whole entry): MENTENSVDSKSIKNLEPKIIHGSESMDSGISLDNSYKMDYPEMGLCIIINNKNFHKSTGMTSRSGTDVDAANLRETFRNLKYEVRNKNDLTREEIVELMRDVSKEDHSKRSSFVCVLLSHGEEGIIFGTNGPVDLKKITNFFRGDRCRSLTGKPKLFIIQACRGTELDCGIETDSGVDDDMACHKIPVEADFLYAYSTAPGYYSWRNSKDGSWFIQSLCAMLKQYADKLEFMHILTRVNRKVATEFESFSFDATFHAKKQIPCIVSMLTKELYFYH
# [2] = biological target: T3, COUP transcription factor 2 (Homo sapiens, UniProt P24468); assay: Luminescence-based cell-based high throughput dose response assay to identify inhibitors of COUP-TFII (NR2F2).; format: functional;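 further: HEK293 cells transiently cotransfected with COUP-TFII expression vector and reporter; luciferase reporter luminescence driven by COUP-TFII from the pX2-168 reporter plasmid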
# T3 sequence (P24468 whole entry): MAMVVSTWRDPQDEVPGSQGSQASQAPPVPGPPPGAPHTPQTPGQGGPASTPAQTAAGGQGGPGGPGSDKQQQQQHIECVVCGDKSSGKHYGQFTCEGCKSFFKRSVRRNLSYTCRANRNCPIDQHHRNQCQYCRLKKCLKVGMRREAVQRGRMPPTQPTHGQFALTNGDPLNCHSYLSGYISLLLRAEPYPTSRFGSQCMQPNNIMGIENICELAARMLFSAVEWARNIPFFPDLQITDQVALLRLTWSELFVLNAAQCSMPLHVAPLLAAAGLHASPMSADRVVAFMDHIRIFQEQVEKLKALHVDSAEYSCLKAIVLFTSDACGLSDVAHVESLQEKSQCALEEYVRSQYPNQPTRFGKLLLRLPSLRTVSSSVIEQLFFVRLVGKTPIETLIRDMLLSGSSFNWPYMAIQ
# BJ = assay: BJ-TERT-LT-ST fibroblast viability loss – cell-based, RAS-independent, luminescence, dose response (AID 1935); format: functional; conditions: Homo sapiens;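 further: BJ fibroblasts immortalized with TERT plus LT and ST oncogenes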
# [3] = loss of viability in HepG2 cells – cell-based, CellTiter-Glo, cherry-picked, cytotoxicity control for Shn3 inhibitor project, dose response (AID 624134); format: functional
# [4] = Counterscreen for AddAB inhibitors: absorbance-based bacterial cell-based high throughput dose response assay for inhibitors of bacterial viability. [Related pubchem assays (depositor defined):AID435030, AID449728, AID449731, AID488942, AID488955, AID488956]; format: functional
# cells [5] = assay: cells
# HEK293 [6] = assay: EBV LMP1 TES2 canonical NF-kB signalling blockers – cell-based, HEK293, luciferase, cherry-pick, dose response (AID 588343); format: functional; conditions: Homo sapiens
# [7] = biological target: T4, Serine/threonine-protein phosphatase (Candida dubliniensis (strain CD36 / CBS 7987 / NCPF 3949 / NRRLY-17841) (Yeast), UniProt B9W6M3); assay: blockers of CaCl2-induced CDRE-lacZ signaling – S. cerevisiae, luminescence, secondary, dose response (AID 2388); format: functional, cell-based;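 further: yeast reporter cells carrying a calcineurin-responsive lacZ construct stimulated with calcium chloride; luminescent beta-galactosidase reporter signal in whole cells rather than isolated phosphatase activity; potency for inhibition where a drop in reporter signal means calcineurin blockade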
# T4 sequence (B9W6M3 whole entry): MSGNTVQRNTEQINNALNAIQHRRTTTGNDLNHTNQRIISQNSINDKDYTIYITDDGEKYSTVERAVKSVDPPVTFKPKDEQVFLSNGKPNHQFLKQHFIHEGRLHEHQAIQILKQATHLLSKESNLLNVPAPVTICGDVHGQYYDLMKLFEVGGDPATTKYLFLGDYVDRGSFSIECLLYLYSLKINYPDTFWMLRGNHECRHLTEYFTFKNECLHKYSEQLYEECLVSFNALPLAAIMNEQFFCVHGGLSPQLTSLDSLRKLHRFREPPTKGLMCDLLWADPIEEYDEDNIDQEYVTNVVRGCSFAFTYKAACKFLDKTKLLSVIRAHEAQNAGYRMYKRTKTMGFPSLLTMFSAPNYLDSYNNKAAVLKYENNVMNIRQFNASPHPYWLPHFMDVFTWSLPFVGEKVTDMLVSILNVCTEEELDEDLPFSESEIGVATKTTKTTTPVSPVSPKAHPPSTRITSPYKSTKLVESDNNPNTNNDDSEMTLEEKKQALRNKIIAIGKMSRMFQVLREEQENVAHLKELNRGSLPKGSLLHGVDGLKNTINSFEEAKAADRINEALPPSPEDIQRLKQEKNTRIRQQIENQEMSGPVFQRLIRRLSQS
# HEK293 [8] = assay: SAR Analysis of small molecule inhibitors of T-cell specific antigen receptor-induced NF-kB activation in a HEK-293T cell line using a luminescence assay - Set 2. [Related pubchem assays (depositor defined):AID435003, AID435012, AID489026]; format: functional, cell-based; conditions: Homo sapiens
# cells [9] = format: functional, cell-based
# cells [10] = format: functional, cell-based; remark: listed apart in the source
# [11] = NIH-3T3 fibroblast cytotoxicity, dose response, cytotoxicity control, cell-based, fluorescence, Alamar Blue, secondary assay (AID 2327); format: functional;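 further: NIH-3T3 mouse fibroblasts cultured with fluconazole at 8 µg/mL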
Compound,IC50 [1],IC50 (Caspase-3),IC50 [2],EC50 (BJ),AC50 [3],IC50 [4],EC50 (cells [5]),AC50 (HEK293 [6]),EC50 [7],IC50 (HEK293 [8]),EC50 (cells [9]),EC50 (cells [10]),EC50 [11]
CCOc1cccc(/C=N/NC(=S)Nc2ccccc2[N+](=O)[O-])c1O,2.65 µM (active),4.25 µM (active),5.05 µM (active),,,,,,,,,,
CCCCC(=O)NC(c1ccc(N(CC)CC)cc1)c1ccc2cccnc2c1O (stereo not drawn),,,,1.79 µM (active),1.2 µM (active),> 119 µM (inactive),0.241 µM (active),5.16 µM (active),> 180 µM (inactive),13 µM (active),> 350 µM (not active),3.08 µM (active),18.1 µM (inconclusive)

# Reference: ChEMBL document CHEMBL1201862, “PubChem BioAssay data set” (2004)
